Test results taken from patent US20090131513A1, “ANTI-INFLAMMATORY MODALITIES” (Novogen Research Pty Ltd., priority 2005, published 2009).

Assays:
TX synthase (TXS) = biological target: T1, TX synthase (TXS) (Homo sapiens, UniProt P24557); assay: TXB2 synthesis following addition of exogenous PGH2 to U937 cells; type: cell-based; conditions: 1, 10, 100 μM, undifferentiated U937 cells, PGH2 5 μM
T1 construct: endogenous in cells; host or cells: undifferentiated U937 cells
T1 sequence (P24557 1-533): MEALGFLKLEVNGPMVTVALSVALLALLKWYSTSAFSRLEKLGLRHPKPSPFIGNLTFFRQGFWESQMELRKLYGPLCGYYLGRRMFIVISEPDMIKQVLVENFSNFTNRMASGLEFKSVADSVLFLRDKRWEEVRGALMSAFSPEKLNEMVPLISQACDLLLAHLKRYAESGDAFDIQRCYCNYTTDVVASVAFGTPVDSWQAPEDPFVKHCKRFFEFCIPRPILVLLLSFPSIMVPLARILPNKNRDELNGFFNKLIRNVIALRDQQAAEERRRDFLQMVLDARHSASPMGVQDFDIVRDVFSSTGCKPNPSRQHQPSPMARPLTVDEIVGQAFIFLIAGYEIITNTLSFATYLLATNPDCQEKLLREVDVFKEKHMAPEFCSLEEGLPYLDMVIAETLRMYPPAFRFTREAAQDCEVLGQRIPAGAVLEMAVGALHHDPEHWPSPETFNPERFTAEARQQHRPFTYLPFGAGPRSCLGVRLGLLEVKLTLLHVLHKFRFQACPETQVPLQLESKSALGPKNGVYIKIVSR
Description: To examine effects of test compounds directly on TX synthase (TXS), a different assay system was used. Whereas arachidonic acid (AA) is the substrate for COX, PGH2 is the substrate for TX synthase. To examine directly the effect of these compounds on TXS, exogenous ? elow:
Test compounds at 0 μM, 1 μM, 10 μM and 100 μM (in DMSO) were incubated with undifferentiated U937 cells (6×10^6/ml) for 30 min at 37° C., after which PGH2 (5 μM) was added. After incubation for 10 min, the reaction was terminated by centrifugation and the supernatants were collected and TXB2 production was measured in triplicate by RIA. ANOVA followed by Newman-Keuls multiple comparisons test was used to examine differences between doses and the control values. A statistical significance level of 0.05 was used and differences from control values are indicated by an asterisk (*).

DSS-induced colitis = assay: Murine model of DSS-induced colitis; type: in vivo, mice (BALB/c); conditions: for maximum mean weight loss: vehicle 5%; for day at which clinical signs became evident: vehicle day 5; for colitis, in words: Experiment 1, 1 mg/kg throughout until day 17; for mean clinical score compared with vehicle, in words: Experiment 1, day 11; for day of switch from mean body weight loss to mean body weight gain: Experiment 1, vehicle day 15; for inflammation, in words: Experiment 2, 1 mg/kg for 10 days prior to DSS only; for colonic inflammation, in words: series of experiments, 1.0-1.25 mg/kg single oral dose per day
Description: Female BALB/c mice, 6-7 weeks old, were housed for a minimum of one week before any experimental work began. To induce colitis, dextran sulphate sodium (DSS—molecular weight 40 kD, TdB Consultancy AB, Uppsala, Sweden (Dieleman et al. 1994), was administered fresh daily in the drinking water at a concentration of 4.5-5% for 5 days (Okayasu et al. 1990), after which water alone was given. This regime induced mild colitis, evidenced by diarrhea and rectal bleeding, the severity of which was scored, as well as a reduction in the length of the colon. Histologically, colonic inflammation was evidenced by ulceration and an infiltration of neutrophils into the mucosa, which was also scored. The systemic effect of the colitis causes weight loss, which was also monitored.
Either vehicle (PEG 400:PBS1:1) Compounds 1 or 4 were administered at a dose rate of 1 mg/kg throughout the experiment until the mice were killed at day 17.
Either Compounds 1 and 2, at a dose of 1 mg/kg or vehicle were administered for 10 days prior to DSS being added to the drinking water to induce colitis, after which test compound was stopped. DSS was administered for 5 days and the mice killed 8 days later (day 23).
Either the cis or the trans isomers of Compound 3 (Compound 3a and 3b respectively) at 1.25 mg/kg or vehicle were administered throughout the experiment until the mice were killed at day 17.

[1] = test system: inflammed rat air pouches (serum-treated zymozan); assay: Rat air pouch assay; type: in vivo, rats (Dark Agouti); conditions: 0.5 ml of 100 μM into pouch; for Polymorphs in tissue sections (per 100 squares): 4 h; for Leucocytes in lavage fluid (×10^−7): lavage at 4 h
Description: An alternative assay used to measure anti-inflammatory efficacy is the air pouch model which involves the repeated subcutaneous injection of air into the dorsum of rats followed 24 h later by the intrapouch injection of an inflammatory stimulus (Gilroy et al. 1998).
Air pouches were raised on the dorsum of female Dark Agouti rats, approximately 7 weeks of age. To promote the formation of a cellular membrane lining the inside of each pouch, the pouches were maintained by re-inflating on days 2 and 5 after the initial injection of air. On re-inflation, the pouch was first deflated to ensure the needle was positioned correctly, before being re-inflated with 2 mL of sterile air. Using this protocol, the pouches remained inflated until use on day 7, when they were injected with 0.5 ml of either test compound at 100 μM or vehicle control. After 15 min, air pouches were injected with serum-treated zymozan (STZ-500 μg). Lavage of the air pouch (4×2 ml lavages) was performed at 4 h and leucocytes counted, after which the rats were killed, the air pouch excised and processed in formalin for histology. The sections were blinded to the person counting. Using a graticule with 100 squares and the 40× objective, the number of polymorphs were counted in the pouch lining at 10 different and non-adjacent sites. Group sizes were 5-6 rats. Data were analysed for statistical significance within each experiment and using an unpaired t test.

[2] = test system: UV irradiation-induced skin oedema; assay: Murine model of UV irradiation-induced skin oedema; type: in vivo, mice (Skh:hr-1 albino); conditions: for Increase in skin thickness (mean ± SD, ×0.01 mm): topical 0.2 ml of 20 μM at 30 min, 2 h, 4 h; for skin oedema, in words: 48 hrs, topical
From the text: Groups of 4-5 female Skh:hr-1 albino mice were irradiated with 1×3 MEdD (minimal edematous dose) of solar simulated UV radiation (SSUV). Solar-simulated ultraviolet radiation (SSUV) was provided by a planar bank of 6 UVA tube (Hitachi 40 W F40 T 10/BL, black light) and one UVB tube (Philips TL 40 W/12 RS) with radiation filtered through a sheet of 0.125 mm cellulose acetate (Eastman Chemical Products, Kingport, Term, USA) to give 2.96×10-4 W/cm2 UVA and 1.59×10-5 W/cm2 UVB. During irradiation, the cages were rotated below the lights to reduce the variation in radiation intensity in different positions.
Either test compound (0.2 ml of a 20 μM solution) or vehicle (propylene glycol/ethanol/water 1:2:1) was applied to the irradiated dorsal skin at 30 min, 2 h and 4 h post-irradiation. Dorsal skin fold measurements were made with a spring micrometer prior to and at 24 hr and 48 h post-UV exposure. The difference in skin thickness pre- and post-exposure to UVR was calculated for each mouse, and the differences examined between test compound and vehicle control were analysed using an unpaired two-tailed t test.

| Compound | thromboxane synthase inhibition (TXB2 synthesis after exogenous PGH2), selectivity in words (TX synthase (TXS)) | comparative anti-inflammatory activity between test compounds (DSS-induced colitis; Experiment 1, 1 mg/kg) | colon length compared with vehicle (trend), in words (DSS-induced colitis; Experiment 1, 1 mg/kg oral) | mean histology scores, in words (DSS-induced colitis; Experiment 1, 1 mg/kg oral) | ulceration of the colonic epithelium compared with vehicle (DSS-induced colitis; Experiment 1, 1 mg/kg oral) | maximum mean weight loss (DSS-induced colitis; Experiment 1, 1 mg/kg oral) [%] | day at which clinical signs became evident (DSS-induced colitis; Experiment 1, 1 mg/kg oral) [days] | colitis, in words (DSS-induced colitis) | mean clinical score compared with vehicle, in words (DSS-induced colitis) | day of switch from mean body weight loss to mean body weight gain (DSS-induced colitis) [days] | inflammation, in words (DSS-induced colitis) | colon length versus control group not given DSS (DSS-induced colitis; Experiment 2, pre-dosed 1 mg/kg) | colonic inflammation, in words (DSS-induced colitis) | Polymorphs in tissue sections (per 100 squares) [1] [per 100 squares] | Leucocytes in lavage fluid (×10^−7) [1] | Increase in skin thickness (mean ± SD, ×0.01 mm) ([2]; 24 hrs post-irradiation) [×0.01 mm] | Increase in skin thickness (mean ± SD, ×0.01 mm) ([2]; 48 hrs post-irradiation) [×0.01 mm] | skin oedema, in words [2] | body weight versus vehicle (DSS-induced colitis; Experiment 2, day 22) | body weight loss associated with DSS-induced colonic inflammation (DSS-induced colitis; Experiment 2, pre-dosed 1 mg/kg for 10 days) |
| --- | --- | --- | --- | --- | --- | --- | --- | --- | --- | --- | --- | --- | --- | --- | --- | --- | --- | --- | --- | --- |
| O=C1c2ccc(O)c(Br)c2OCC1c1ccc(O)cc1 (centres unmarked) [Compound 1, 3-(4-hydroxyphenyl)-7-hydroxy-8-bromo-chroman-4-one] | selective thromboxane synthase inhibitors | better anti-inflammatory activity | longer | less colitis | statistically significant (p=0.0135) less ulceration | 2 | 6 | decreased colitis | significantly lower | 10 | Inflammation was reduced | not statistically different in length from those of the control group | reduced colonic inflammation | 31.0 ± 7.25 | 0.89 ± 0.42 ×10^−7 | 54 ± 20 | 91 ± 7.6 | significantly inhibited | – | – |
| O=C1c2cc(Cl)c(O)cc2OCC1c1ccc(O)cc1 (centres unmarked) [Compound 4] | selective thromboxane synthase inhibitors | – | longer | less colitis | – | 1 | 6 | decreased colitis | significantly lower | 12 | – | – | reduced colonic inflammation | 23.4 ± 8.8 | 1.00 ± 0.38 ×10^−7 | 63 ± 22 | 145 ± 11 | – | – | – |
| Oc1ccc(C2COc3c(ccc(O)c3O)C2O)cc1 (centres unmarked) [Compound 2] | selective thromboxane synthase inhibitors | – | – | – | – | – | – | – | – | – | Inflammation was reduced | – | reduced colonic inflammation | 14.3 ± 5.7 | 0.68 ± 0.36 ×10^−7 | 68 ± 24 | 105 ± 22 | significantly inhibited | weighed significantly more than those receiving vehicle (p=0.0291) | reduced the body weight loss |
